Source: the supplement of paper PMC9663587

Columns and labels:
[1] = compound: C1=CC(=CC(=C1)N2C(=O)C=CC3=CN=C4C=CC(=CC4=C32)C5=CN=C(C=C5)N)C(F)(F)F [Torin2]
[2] = compound: C1=CC2=C(C=CC(=C2)C=C3C(=O)NC(=NCC4=CC=CS4)S3)N=C1 [R0-3306]
[3] = compound: C=CCn1c(=O)c2cnc(Nc3ccc(N4CCN(C)CC4)cc3)nc2n1-c1cccc(C(C)(C)O)n1 [AZD1775]
[4] = compound: CC(=O)Nc1cccc(-n2c(=O)n(C3CC3)c(=O)c3c(Nc4ccc(I)cc4F)n(C)c(=O)c(C)c32)c1
[5] = compound: CC(=O)c1c(C)c2cnc(Nc3ccc(N4CCNCC4)cn3)nc2n(C2CCCC2)c1=O
[6] = compound: CC(C)NC[C@@H](C(=O)N1CCN(c2ncnc3c2[C@H](C)C[C@H]3O)CC1)c1ccc(Cl)cc1 [Ipatasertib/GDC0068]
[7] = compound: CC(C)Nc1cc(-c2c[nH]c(C(=O)N[C@H](CO)c3cccc(Cl)c3)c2)c(Cl)cn1 [BVD523]
[8] = compound: CC1(CCN(CC1)C2=CN=C(C(=N2)N)C3=C(C(=CC=C3)Cl)Cl)N [SHP099]
[9] = compound: CC1=CN2C(=O)C=C(N=C2C(=C1)C(C)NC3=CC=CC=C3)N4CCOCC4 [TGX221]
[10] = compound: CCC1=CN=CN=C1N2CCN(CC2)CC3=NC4=C(N3)C=C(C=C4)C(F)(F)F
[11] = compound: CCCCOc1c(C(=O)c2c(F)cc(C)cc2F)c[nH]c2nncc1-2
[12] = compound: CCNC(=O)c1noc(-c2cc(C(C)C)c(O)cc2O)c1-c1ccc(CN2CCOCC2)cc1 [Luminespib/NVP-AUY922]
[13] = compound: CCc1cnn2c(NCc3ccc[n+]([O-])c3)cc(N3CCCC[C@H]3CCO)nc12
[14] = compound: CN(C)C/C=C/C(=O)NC1=CC=C(C=C1)C(=O)NC2=CC=CC(=C2)NC3=NC=NC(=C3)C4=CNC5=CC=CC=C54 [THZ-P1-2]
[15] = compound: CN(C)C/C=C/C(=O)Nc1ccc(C(=O)Nc2cccc(Nc3ncc(Cl)c(-c4c[nH]c5ccccc45)n3)c2)cc1 [THZ1]
[16] = compound: CN(C)C/C=C/C(=O)Nc1ccc(O[C@@H]2CCC[C@@H](Nc3ncc(Cl)c(-c4c[nH]c5ccccc45)n3)C2)cc1 [BSJ-01-175]
[17] = compound: CN1CCN(CCOc2cc(OC3CCOCC3)c3c(Nc4c(Cl)ccc5c4OCO5)ncnc3c2)CC1 [Saracatinib/AZD0530]
[18] = compound: CN1CC[C@H](c2c(O)cc(O)c3c(=O)cc(-c4ccccc4Cl)oc23)[C@H](O)C1 [Flavopiridol]
[19] = compound: CNC(=O)c1cccc(-c2ccc3c(N4CCOC[C@@H]4C)nc(N4CCOC[C@@H]4C)nc3n2)c1 [AZD2014]
[20] = compound: CNCc1ccc(-c2[nH]c3cc(F)cc4c3c2CCNC4=O)cc1 [Rucaparib]
[21] = compound: CNc1nc(-c2ccc3c(N)n[nH]c3c2)cc(N2C[C@@H](C(=O)NC3CCCCC3)CC[C@H]2C)n1
[22] = compound: CO[C@@H](C)Cn1c(=O)n(C)c2cnc3ccc(-c4cncc(C(C)(C)O)c4)cc3c21
[23] = compound: COc1cc2c(Oc3ccc4[nH]c(C)cc4c3F)ncnc2cc1OCCCN1CCCC1 [Cediranib/AZD2171]
[24] = compound: COc1cc2nccc(Oc3ccc(NC(=O)C4(C(=O)Nc5ccc(F)cc5)CC4)cc3)c2cc1OC [Cabozantinib]
[25] = compound: COc1cccc2c1C(=O)c1c(O)c3c(c(O)c1C2=O)C[C@@](O)(C(=O)CO)C[C@@H]3O[C@H]1C[C@H](N)[C@H](O)[C@H](C)O1 [Doxorubicin]
[26] = compound: C[C@@H]1COCCN1c1cc(C2([S@](C)(=N)=O)CC2)nc(-c2cc[nH]c3nccc2-3)n1 [AZD6738]
[27] = compound: Cc1nc(NC(=O)N2CCC[C@H]2C(N)=O)sc1-c1ccnc(C(C)(C)C(F)(F)F)c1 [Alpelisib/BYL719]
[28] = compound: Cc1nc(Nc2ncc(C(=O)Nc3c(C)cccc3Cl)s2)cc(N2CCN(CCO)CC2)n1 [Dasatinib]
[29] = compound: Cc1nn(C)c(COc2ccc(N3CCN(S(=O)(=O)N(C)C)CC3)cc2)c1-c1cccc2c(CCCOc3cccc4ccccc34)c(C(=O)O)n(CCN3CCOCC3)c12
[30] = compound: NC(=O)Nc1cc(-c2cccc(F)c2)sc1C(=O)N[C@H]1CCCNC1 [AZD7762]
[31] = compound: NC1(C(=O)N[C@@H](CCO)c2ccc(Cl)cc2)CCN(c2nc[nH]c3nccc2-3)CC1 [AZD5363]
[32] = compound: Nc1cc(C(F)(F)F)c(-c2cc(N3CCOCC3)nc(N3CCOCC3)n2)cn1 [Buparlisib/NVP-BKM120]
[33] = compound: O=C(CCCCCCC(=O)Nc1ccccc1)NO [Vorinostat]
[34] = compound: O=C(c1cc(Cc2n[nH]c(=O)c3ccccc23)ccc1F)N1CCN(C(=O)C2CC2)CC1 [Olaparib/AZD2281]
[35] = compound: CN1CCN(C(=O)c2ccc3cc(CCNc4ncnc5ccc(C#N)cc45)ccc3c2)CC1 [senexin b]
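Further: breast cancer and non-malignant breast epithelial cell lines, Deep Dye Drop or Dye Drop imaging, nine half-log doses, GR normalized to time-zero plates and DMSO-only controls.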

Row | Cell Line | GR50, 72 h [1] | GR50, 72 h [2] | GR50, 72 h [3] | GR50, 72 h [4] | GR50, 72 h [5] | GR50, 72 h [6] | GR50, 72 h [7] | GR50, 72 h [8] | GR50, 72 h [9] | GR50, 72 h [10] | GR50, 72 h [11] | GR50, 72 h [12] | GR50, 72 h [13] | GR50, 72 h [14] | GR50, 72 h [15] | GR50, 72 h [16] | GR50, 72 h [17] | GR50, 72 h [18] | GR50, 72 h [19] | GR50, 72 h [20] | GR50, 72 h [21] | GR50, 72 h [22] | GR50, 72 h [23] | GR50, 72 h [24] | GR50, 72 h [25] | GR50, 72 h [26] | GR50, 72 h [27] | GR50, 72 h [28] | GR50, 72 h [29] | GR50, 72 h [30] | GR50, 72 h [31] | GR50, 72 h [32] | GR50, 72 h [33] | GR50, 72 h [34] | GR50, 72 h [35]
1 | SUM190PT | 0.00524 µM | 4.76 µM | 0.0515 µM | > 1 µM | 0.0436 µM | > 10 µM | 3.33 µM | > 10 µM | > 10 µM | 9.17 µM | 0.0016 µM | 0.00558 µM | 0.0215 µM | 0.303 µM | 0.00565 µM | 0.00573 µM | > 10 µM | 0.0802 µM | 0.00932 µM | > 10 µM | 2.22 µM | < 0.001 µM | > 10 µM | 6.1 µM | 0.025 µM | 4.09 µM | > 10 µM | 0.212 µM | 6.86 µM | 0.0612 µM | 2.35 µM | 1.04 µM | 0.402 µM | > 10 µM | 
2 | UACC812 | 0.00356 µM | 5.09 µM | 3.03 µM | 0.00179 µM | 0.0179 µM | 1.02 µM | 1.32 µM | > 10 µM | 0.0345 µM | 2.01 µM | < 0.001 µM | 0.00518 µM | 0.0303 µM | 3.78 µM | 0.691 µM | 0.332 µM | 0.0189 µM | 0.0813 µM | < 0.001 µM | > 10 µM | 0.884 µM | < 0.001 µM | 1.04 µM | 5.86 µM | 0.00203 µM | 5.82 µM | 0.588 µM | 0.00102 µM | > 10 µM | 0.00748 µM | 8.81 µM | 0.0515 µM | 1.12 µM | 8.69 µM | 
3 | SUM1315 | 0.015 µM | 2.79 µM | < 0.001 µM | 0.0211 µM | 0.0923 µM | > 10 µM | 6 µM | > 10 µM | > 10 µM | > 10 µM | 0.00376 µM | 0.00486 µM | 0.0109 µM | 7.11 µM | 0.251 µM | 0.419 µM | 1.39 µM | 0.104 µM | 0.0012 µM |  | 3.85 µM | 0.00919 µM | 1.47 µM | 4.52 µM | 0.0182 µM | 4.46 µM | 6.46 µM | 0.0191 µM | > 10 µM | 0.0527 µM | > 10 µM | 0.402 µM | 1.76 µM | 2.03 µM | > 10 µM
